Data taken from PMC7265341, “Quantifying CDK inhibitor selectivity in live cells” (Nature Communications, 2020).
Like-named read-outs stand apart in the source and are kept apart here.

What was measured:
CDK1/Cyclin E1 = CDK1/Cyclin E1 (Homo sapiens, UniProt P06493); experiment: NanoBRET live-cell target engagement, CDK1-NanoLuc/Cyclin E1 in HEK-293; assay type: binding; details: CDK1/E1, 10µM
CDK2/Cyclin E1 = CDK2/Cyclin E1 (Homo sapiens, UniProt P24941); experiment: NanoBRET live-cell target engagement, CDK2-NanoLuc/Cyclin E1 in HEK-293; assay type: binding; details: CDK2/E1
CDK3/Cyclin E1 = CDK3/Cyclin E1 (Homo sapiens, UniProt Q00526); experiment: NanoBRET live-cell target engagement, CDK3-NanoLuc/Cyclin E1 in HEK-293; assay type: binding; details: 10µM
CDK4/Cyclin D1 = CDK4/Cyclin D1 (Homo sapiens, UniProt P11802); experiment: NanoBRET live-cell target engagement, NanoLuc-CDK4/Cyclin D1 in HEK-293; assay type: binding; details: CDK4/D1
CDK5/CDK5R1 = CDK5/CDK5R1 (Homo sapiens, UniProt Q00535); experiment: NanoBRET live-cell target engagement, CDK5-NanoLuc/CDK5R1 in HEK-293; assay type: binding; details: CDK5/CDK5R1, 10µM
CDK7 = CDK7 (Homo sapiens, UniProt P50613); experiment: NanoBRET live-cell target engagement, NanoLuc-CDK7 in HEK-293; assay type: binding; details: 10µM
CDK8/Cyclin C = CDK8/Cyclin C (Homo sapiens, UniProt P49336); experiment: NanoBRET live-cell target engagement, NanoLuc-CDK8/Cyclin C in HEK-293; assay type: binding; details: CDK8/C, 10µM
CDK9/Cyclin K = CDK9/Cyclin K (Homo sapiens, UniProt P50750); experiment: NanoBRET live-cell target engagement, NanoLuc-CDK9/Cyclin K in HEK-293; assay type: binding; details: CDK9/K, 10µM
CDK11A/Cyclin L2 = biological target: T1, CDK11A/Cyclin L2 (Homo sapiens, UniProt Q9UQ88); experiment: NanoBRET live-cell target engagement, CDK11A-NanoLuc/Cyclin L2 in HEK-293; assay type: binding; details: 10µM
T1 sequence (Q9UQ88 1-783): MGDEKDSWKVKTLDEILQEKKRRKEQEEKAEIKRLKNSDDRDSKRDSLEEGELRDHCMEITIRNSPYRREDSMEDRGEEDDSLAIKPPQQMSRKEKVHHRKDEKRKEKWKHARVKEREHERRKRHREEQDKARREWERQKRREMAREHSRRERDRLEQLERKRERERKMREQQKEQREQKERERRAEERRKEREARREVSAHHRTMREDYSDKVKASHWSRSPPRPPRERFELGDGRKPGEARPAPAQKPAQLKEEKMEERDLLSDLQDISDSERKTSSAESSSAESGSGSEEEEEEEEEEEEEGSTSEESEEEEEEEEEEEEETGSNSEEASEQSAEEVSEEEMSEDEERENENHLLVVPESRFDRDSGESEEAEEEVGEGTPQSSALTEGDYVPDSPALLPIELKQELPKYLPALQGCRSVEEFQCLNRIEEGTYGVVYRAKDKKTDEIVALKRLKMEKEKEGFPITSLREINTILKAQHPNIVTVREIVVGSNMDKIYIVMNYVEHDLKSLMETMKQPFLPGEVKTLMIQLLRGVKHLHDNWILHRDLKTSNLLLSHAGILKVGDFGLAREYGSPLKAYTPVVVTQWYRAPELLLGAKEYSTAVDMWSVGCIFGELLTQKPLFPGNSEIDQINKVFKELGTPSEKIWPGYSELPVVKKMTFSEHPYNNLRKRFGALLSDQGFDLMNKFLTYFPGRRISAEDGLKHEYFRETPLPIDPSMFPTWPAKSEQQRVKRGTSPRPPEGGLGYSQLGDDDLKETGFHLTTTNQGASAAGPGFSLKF

CDK11B/Cyclin L2 = CDK11B/Cyclin L2 (Homo sapiens, UniProt P21127); experiment: NanoBRET live-cell target engagement, CDK11B-NanoLuc/Cyclin L2 in HEK-293; assay type: binding; details: 10µM
CDK12/Cyclin K = CDK12/Cyclin K (Homo sapiens, UniProt Q9NYV4); experiment: NanoBRET live-cell target engagement, CDK12-NanoLuc/Cyclin K in HEK-293; assay type: binding; details: 10µM
CDK13/Cyclin K = CDK13/Cyclin K (Homo sapiens, UniProt Q14004); experiment: NanoBRET live-cell target engagement, CDK13-NanoLuc/Cyclin K in HEK-293; assay type: binding; details: CDK13/K, 10µM
CDK14/Cyclin Y = CDK14/Cyclin Y (Homo sapiens, UniProt O94921); experiment: NanoBRET live-cell target engagement, CDK14-NanoLuc/Cyclin Y in HEK-293; assay type: binding; details: for IC50: CDK14/Y
CDK15/Cyclin Y = CDK15/Cyclin Y (Homo sapiens, UniProt Q96Q40); experiment: NanoBRET live-cell target engagement, NanoLuc-CDK15/Cyclin Y in HEK-293; assay type: binding; details: for IC50: CDK15/Y
CDK16/Cyclin Y = CDK16/Cyclin Y (Homo sapiens, UniProt Q00536); experiment: NanoBRET live-cell target engagement, CDK16-NanoLuc/Cyclin Y in HEK-293; assay type: binding; details: for IC50: CDK16/Y
CDK17/Cyclin Y = CDK17/Cyclin Y (Homo sapiens, UniProt Q00537); experiment: NanoBRET live-cell target engagement, CDK17-NanoLuc/Cyclin Y in HEK-293; assay type: binding; details: 10µM
CDK20/Cyclin H = CDK20/Cyclin H (Homo sapiens, UniProt Q8IZL9); experiment: NanoBRET live-cell target engagement, NanoLuc-CDK20/Cyclin H in HEK-293; assay type: binding; details: 10µM
CDK19/Cyclin C = CDK19/Cyclin C (Homo sapiens, UniProt Q9BWU1); experiment: NanoBRET live-cell target engagement, NanoLuc-CDK19/Cyclin C in HEK-293; details: 10µM
CDK10/Cyclin L2 = CDK10/Cyclin L2 (Homo sapiens, UniProt Q15131); experiment: NanoBRET live-cell target engagement, CDK10-NanoLuc/Cyclin L2 in HEK-293; details: 10µM
[1] = average of replicates, read-out: Inhibition at 10µM (%) Average
[2] = read-out: Inhibition at 10µM (%) Replicate 1
[3] = read-out: Inhibition at 10µM (%) Replicate 2
[4] = n=3 average ± SEM, n=2 average to 2 significant figures, read-out: IC50 (nM) Average*
[5] = read-out: IC50 (nM) Replicate 1
[6] = read-out: IC50 (nM) Replicate 2
[7] = read-out: IC50 (nM) Replicate 3

Sequence of CDK10/Cyclin L2 (Q15131 whole entry): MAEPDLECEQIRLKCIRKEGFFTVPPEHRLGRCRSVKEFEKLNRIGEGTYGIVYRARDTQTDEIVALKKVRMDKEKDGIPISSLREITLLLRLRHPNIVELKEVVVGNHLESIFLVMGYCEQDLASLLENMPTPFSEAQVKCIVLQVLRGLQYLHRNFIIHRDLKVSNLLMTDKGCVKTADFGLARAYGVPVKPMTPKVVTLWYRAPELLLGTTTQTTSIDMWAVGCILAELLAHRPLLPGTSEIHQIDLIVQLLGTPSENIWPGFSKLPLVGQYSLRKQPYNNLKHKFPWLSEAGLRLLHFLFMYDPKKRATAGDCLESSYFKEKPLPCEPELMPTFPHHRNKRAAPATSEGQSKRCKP
Sequence of CDK12/Cyclin K (Q9NYV4 1-1481 isoform Q9NYV4-2): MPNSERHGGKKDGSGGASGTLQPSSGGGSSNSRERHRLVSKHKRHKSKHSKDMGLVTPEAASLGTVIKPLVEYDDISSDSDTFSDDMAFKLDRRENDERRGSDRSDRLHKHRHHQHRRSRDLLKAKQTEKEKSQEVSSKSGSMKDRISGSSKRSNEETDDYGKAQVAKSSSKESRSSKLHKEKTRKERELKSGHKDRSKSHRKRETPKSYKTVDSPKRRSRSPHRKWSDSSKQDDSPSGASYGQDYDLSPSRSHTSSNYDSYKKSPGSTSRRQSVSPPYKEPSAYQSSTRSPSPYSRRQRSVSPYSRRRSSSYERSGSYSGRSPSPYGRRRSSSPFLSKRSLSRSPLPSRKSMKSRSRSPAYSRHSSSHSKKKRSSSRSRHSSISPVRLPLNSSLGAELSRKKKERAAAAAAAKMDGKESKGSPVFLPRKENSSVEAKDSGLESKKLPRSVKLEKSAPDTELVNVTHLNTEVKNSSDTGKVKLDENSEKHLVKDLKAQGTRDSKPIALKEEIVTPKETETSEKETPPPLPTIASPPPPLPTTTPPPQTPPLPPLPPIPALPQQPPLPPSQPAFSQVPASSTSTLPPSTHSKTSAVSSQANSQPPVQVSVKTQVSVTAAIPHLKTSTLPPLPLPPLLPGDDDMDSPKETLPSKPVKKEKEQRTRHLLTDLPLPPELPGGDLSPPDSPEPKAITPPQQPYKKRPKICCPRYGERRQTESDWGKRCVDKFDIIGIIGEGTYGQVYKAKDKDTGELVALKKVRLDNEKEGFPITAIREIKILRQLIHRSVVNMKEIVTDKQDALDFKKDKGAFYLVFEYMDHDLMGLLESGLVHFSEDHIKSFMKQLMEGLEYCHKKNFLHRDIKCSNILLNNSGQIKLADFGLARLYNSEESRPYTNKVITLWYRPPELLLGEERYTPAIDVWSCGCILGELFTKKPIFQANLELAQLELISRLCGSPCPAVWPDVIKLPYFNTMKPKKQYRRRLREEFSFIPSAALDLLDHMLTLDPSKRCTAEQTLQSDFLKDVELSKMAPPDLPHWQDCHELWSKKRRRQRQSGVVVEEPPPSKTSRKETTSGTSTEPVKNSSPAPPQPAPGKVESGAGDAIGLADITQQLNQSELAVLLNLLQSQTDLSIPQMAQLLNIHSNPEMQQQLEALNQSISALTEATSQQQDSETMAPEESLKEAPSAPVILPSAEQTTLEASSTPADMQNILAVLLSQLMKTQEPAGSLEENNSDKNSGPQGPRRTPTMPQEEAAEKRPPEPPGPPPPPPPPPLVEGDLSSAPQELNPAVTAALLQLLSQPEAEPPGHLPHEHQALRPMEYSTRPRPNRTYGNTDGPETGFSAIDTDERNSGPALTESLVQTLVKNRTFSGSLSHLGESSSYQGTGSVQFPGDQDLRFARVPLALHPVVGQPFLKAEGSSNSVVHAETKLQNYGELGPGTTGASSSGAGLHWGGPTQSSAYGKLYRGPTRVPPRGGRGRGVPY
Sequence of CDK12/Cyclin K (O75909 whole entry partner): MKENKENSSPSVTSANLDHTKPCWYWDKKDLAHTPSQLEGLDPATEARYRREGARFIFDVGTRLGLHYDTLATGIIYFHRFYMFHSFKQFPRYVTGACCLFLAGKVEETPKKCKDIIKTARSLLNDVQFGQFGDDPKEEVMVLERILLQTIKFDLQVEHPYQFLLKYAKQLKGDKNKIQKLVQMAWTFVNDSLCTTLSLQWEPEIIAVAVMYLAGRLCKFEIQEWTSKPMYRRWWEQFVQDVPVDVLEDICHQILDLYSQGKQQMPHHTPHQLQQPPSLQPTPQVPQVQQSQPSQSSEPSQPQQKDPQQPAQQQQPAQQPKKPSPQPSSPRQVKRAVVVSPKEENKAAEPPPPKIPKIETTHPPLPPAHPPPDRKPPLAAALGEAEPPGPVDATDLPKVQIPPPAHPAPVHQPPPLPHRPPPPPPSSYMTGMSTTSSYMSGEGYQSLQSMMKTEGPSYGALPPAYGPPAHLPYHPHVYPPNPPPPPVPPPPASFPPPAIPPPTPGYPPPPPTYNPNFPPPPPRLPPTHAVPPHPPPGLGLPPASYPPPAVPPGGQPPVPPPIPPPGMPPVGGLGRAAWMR
Sequence of CDK14/Cyclin Y (O94921 whole entry): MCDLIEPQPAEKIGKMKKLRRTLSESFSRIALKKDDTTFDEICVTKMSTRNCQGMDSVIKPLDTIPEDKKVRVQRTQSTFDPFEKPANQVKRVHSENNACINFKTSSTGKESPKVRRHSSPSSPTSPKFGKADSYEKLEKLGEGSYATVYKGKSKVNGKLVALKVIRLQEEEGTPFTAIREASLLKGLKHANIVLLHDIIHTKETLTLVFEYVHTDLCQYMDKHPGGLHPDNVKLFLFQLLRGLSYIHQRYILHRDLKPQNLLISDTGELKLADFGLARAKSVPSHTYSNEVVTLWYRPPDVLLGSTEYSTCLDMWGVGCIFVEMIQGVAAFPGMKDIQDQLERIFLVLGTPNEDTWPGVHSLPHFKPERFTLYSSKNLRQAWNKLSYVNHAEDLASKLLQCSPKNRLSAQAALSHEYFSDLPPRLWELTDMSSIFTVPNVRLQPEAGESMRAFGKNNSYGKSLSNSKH
Sequence of CDK14/Cyclin Y (Q8ND76 whole entry partner): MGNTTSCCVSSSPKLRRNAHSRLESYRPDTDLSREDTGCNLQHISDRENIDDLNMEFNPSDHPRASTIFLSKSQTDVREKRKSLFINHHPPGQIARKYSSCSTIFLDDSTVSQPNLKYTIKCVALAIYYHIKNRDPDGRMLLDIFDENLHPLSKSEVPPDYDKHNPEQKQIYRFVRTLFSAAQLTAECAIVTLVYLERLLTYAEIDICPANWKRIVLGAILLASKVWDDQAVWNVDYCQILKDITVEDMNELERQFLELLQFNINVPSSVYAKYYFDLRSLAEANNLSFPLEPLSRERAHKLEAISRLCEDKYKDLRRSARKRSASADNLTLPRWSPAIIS
Sequence of CDK15/Cyclin Y (Q96Q40 whole entry): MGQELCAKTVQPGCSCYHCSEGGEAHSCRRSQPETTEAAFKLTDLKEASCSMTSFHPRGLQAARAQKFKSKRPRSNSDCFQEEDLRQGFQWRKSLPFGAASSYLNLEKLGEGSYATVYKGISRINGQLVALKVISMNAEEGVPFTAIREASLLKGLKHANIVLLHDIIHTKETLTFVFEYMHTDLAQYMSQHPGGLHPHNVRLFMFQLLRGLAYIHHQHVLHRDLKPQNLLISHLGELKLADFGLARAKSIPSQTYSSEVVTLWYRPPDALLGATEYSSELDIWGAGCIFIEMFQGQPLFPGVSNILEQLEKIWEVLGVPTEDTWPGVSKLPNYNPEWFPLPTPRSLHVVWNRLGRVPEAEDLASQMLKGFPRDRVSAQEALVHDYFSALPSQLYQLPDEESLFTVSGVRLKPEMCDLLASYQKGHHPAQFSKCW
Sequence of CDK15/Cyclin Y (Q8ND76 whole entry partner): as the sequence (Q8ND76 whole entry partner) above
Sequence of CDK9/Cyclin K (P50750 whole entry): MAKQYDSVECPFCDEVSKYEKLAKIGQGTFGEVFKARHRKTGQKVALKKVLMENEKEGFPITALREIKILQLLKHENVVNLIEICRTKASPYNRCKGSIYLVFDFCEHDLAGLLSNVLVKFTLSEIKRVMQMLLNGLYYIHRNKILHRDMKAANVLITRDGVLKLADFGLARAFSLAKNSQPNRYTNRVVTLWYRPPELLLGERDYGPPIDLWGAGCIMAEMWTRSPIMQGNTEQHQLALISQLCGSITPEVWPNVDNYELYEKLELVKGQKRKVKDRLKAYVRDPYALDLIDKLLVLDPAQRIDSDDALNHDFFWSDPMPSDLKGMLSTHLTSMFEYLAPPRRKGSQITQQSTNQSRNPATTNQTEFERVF
Sequence of CDK9/Cyclin K (O75909 whole entry partner): as the sequence (O75909 whole entry partner) above
Sequence of CDK4/Cyclin D1 (P11802 whole entry): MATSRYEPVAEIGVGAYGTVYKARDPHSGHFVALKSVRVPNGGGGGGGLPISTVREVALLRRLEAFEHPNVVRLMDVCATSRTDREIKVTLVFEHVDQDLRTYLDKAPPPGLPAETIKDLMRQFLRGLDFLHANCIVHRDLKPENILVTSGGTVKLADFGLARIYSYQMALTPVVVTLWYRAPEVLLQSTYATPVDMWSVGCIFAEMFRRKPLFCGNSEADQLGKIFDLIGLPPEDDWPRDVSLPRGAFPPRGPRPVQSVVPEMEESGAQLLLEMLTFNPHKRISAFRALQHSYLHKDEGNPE
Sequence of CDK4/Cyclin D1 (P24385 whole entry partner): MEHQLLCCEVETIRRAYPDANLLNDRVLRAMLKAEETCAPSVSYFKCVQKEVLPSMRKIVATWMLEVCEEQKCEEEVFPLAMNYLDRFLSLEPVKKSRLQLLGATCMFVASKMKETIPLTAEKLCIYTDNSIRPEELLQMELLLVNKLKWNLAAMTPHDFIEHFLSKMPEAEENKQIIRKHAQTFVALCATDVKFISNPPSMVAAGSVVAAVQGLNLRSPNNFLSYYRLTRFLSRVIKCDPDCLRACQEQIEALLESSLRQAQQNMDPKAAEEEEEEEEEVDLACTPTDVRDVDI

Work on `C[C@H]1CC[C@H](n2c3cnccc3c3cnc(Nc4ccc5c(n4)CCN(C(=O)CO)C5)nc32)CC1` [AMG 925] yielded an inhibition at 10 µM (CDK1/Cyclin E1; [1]) of 34.5%, an inhibition at 10 µM (CDK1/Cyclin E1; [2]) of 45.4% and an inhibition at 10 µM (CDK1/Cyclin E1; [3]) of 23.6%. The inhibition at 10 µM (CDK2/Cyclin E1; [1]) was 63.9%, the inhibition at 10 µM (CDK2/Cyclin E1; [2]) was 40.8% and the inhibition at 10 µM (CDK2/Cyclin E1; [3]) was 87%. The IC50 (CDK2/Cyclin E1; [4]) was 310 ± 70 nM, the IC50 (CDK2/Cyclin E1; [5]) was 171 nM and the IC50 (CDK2/Cyclin E1; [6]) was 400 nM. The IC50 (CDK2/Cyclin E1; [7]) was 370 nM, the inhibition at 10 µM (CDK3/Cyclin E1; read-out: Inhibition at 10µM (%) Average, CDK3/E1, average of replicates) was 54.2% and the inhibition at 10 µM (CDK3/Cyclin E1; read-out: Inhibition at 10µM (%) Replicate 1, CDK3/E1) was 39.2%. For the same compound, the inhibition at 10 µM (CDK3/Cyclin E1; read-out: Inhibition at 10µM (%) Replicate 2, CDK3/E1) was 69.3%, the inhibition at 10 µM (CDK4/Cyclin D1; [1]) was 92.7% and the inhibition at 10 µM (CDK4/Cyclin D1; [2]) was 97.7%. The inhibition at 10 µM (CDK4/Cyclin D1; [3]) was 87.7%, the IC50 (CDK4/Cyclin D1; [4]) was 6 ± 2 nM and the IC50 (CDK4/Cyclin D1; [5]) was 3.2 nM. The IC50 (CDK4/Cyclin D1; [6]) was 4.9 nM, the IC50 (CDK4/Cyclin D1; [7]) was 11 nM and the inhibition at 10 µM (CDK5/CDK5R1; [1]) was 22.1%. It also gave an inhibition at 10 µM (CDK5/CDK5R1; [2]) of 24.7%, an inhibition at 10 µM (CDK5/CDK5R1; [3]) of 19.6% and an inhibition at 10 µM (CDK7; read-out: Inhibition at 10µM (%) Average, CDK7, average of replicates) of 27.8%. For the same compound, the inhibition at 10 µM (CDK7; read-out: Inhibition at 10µM (%) Replicate 1, CDK7) was 10.8%, the inhibition at 10 µM (CDK7; read-out: Inhibition at 10µM (%) Replicate 2, CDK7) was 44.9% and the inhibition at 10 µM (CDK8/Cyclin C; [1]) was 12.6%. The inhibition at 10 µM (CDK8/Cyclin C; [2]) was 13.8%, the inhibition at 10 µM (CDK8/Cyclin C; [3]) was 11.5% and the inhibition at 10 µM (CDK9/Cyclin K; [1]) was 39.8%. For the same compound, the inhibition at 10 µM (CDK9/Cyclin K; [2]) was 12.7%, the inhibition at 10 µM (CDK9/Cyclin K; [3]) was 67% and the inhibition at 10 µM (CDK11A/Cyclin L2; read-out: Inhibition at 10µM (%) Average, CDK11a/L2, average of replicates) was 6.7%. For the same compound, the inhibition at 10 µM (CDK11A/Cyclin L2; read-out: Inhibition at 10µM (%) Replicate 1, CDK11a/L2) was -0.9%, the inhibition at 10 µM (CDK11A/Cyclin L2; read-out: Inhibition at 10µM (%) Replicate 2, CDK11a/L2) was 14.4% and the inhibition at 10 µM (CDK11B/Cyclin L2; read-out: Inhibition at 10µM (%) Average, CDK11b/L2, average of replicates) was 8.5%. For the same compound, the inhibition at 10 µM (CDK11B/Cyclin L2; read-out: Inhibition at 10µM (%) Replicate 1, CDK11b/L2) was 5.1%, the inhibition at 10 µM (CDK11B/Cyclin L2; read-out: Inhibition at 10µM (%) Replicate 2, CDK11b/L2) was 11.9% and the inhibition at 10 µM (CDK12/Cyclin K; read-out: Inhibition at 10µM (%) Average, CDK12/K, average of replicates) was 8%. It also gave an inhibition at 10 µM (CDK12/Cyclin K; read-out: Inhibition at 10µM (%) Replicate 1, CDK12/K) of 7.8%, an inhibition at 10 µM (CDK12/Cyclin K; read-out: Inhibition at 10µM (%) Replicate 2, CDK12/K) of 8.2% and an inhibition at 10 µM (CDK13/Cyclin K; [1]) of -2.5%. The inhibition at 10 µM (CDK13/Cyclin K; [2]) was 3.8%, the inhibition at 10 µM (CDK13/Cyclin K; [3]) was -8.8% and the IC50 (CDK14/Cyclin Y; [4]) was 600 ± 200 nM. It also gave an IC50 (CDK14/Cyclin Y; [5]) of 217 nM, an IC50 (CDK14/Cyclin Y; [6]) of 690 nM and an IC50 (CDK14/Cyclin Y; [7]) of 766 nM. It also gave an inhibition at 10 µM (CDK14/Cyclin Y; read-out: Inhibition at 10µM (%) Average, CDK14/Y, average of replicates) of 32.4%, an inhibition at 10 µM (CDK14/Cyclin Y; read-out: Inhibition at 10µM (%) Replicate 1, CDK14/Y) of 39% and an inhibition at 10 µM (CDK14/Cyclin Y; read-out: Inhibition at 10µM (%) Replicate 2, CDK14/Y) of 25.8%. For the same compound, the IC50 (CDK15/Cyclin Y; [4]) was 820 ± 50 nM, the IC50 (CDK15/Cyclin Y; [5]) was 842 nM and the IC50 (CDK15/Cyclin Y; [6]) was 720 nM. For the same compound, the IC50 (CDK15/Cyclin Y; [7]) was 901 nM, the inhibition at 10 µM (CDK15/Cyclin Y; read-out: Inhibition at 10µM (%) Average, CDK15/Y, average of replicates) was 55.3% and the inhibition at 10 µM (CDK15/Cyclin Y; read-out: Inhibition at 10µM (%) Replicate 1, CDK15/Y) was 50.5%. It also gave an inhibition at 10 µM (CDK15/Cyclin Y; read-out: Inhibition at 10µM (%) Replicate 2, CDK15/Y) of 60.1%, an IC50 (CDK16/Cyclin Y; [4]) of 200 ± 100 nM and an IC50 (CDK16/Cyclin Y; [5]) of 103 nM. It also gave an IC50 (CDK16/Cyclin Y; [6]) of 420 nM, an IC50 (CDK16/Cyclin Y; [7]) of 188 nM and an inhibition at 10 µM (CDK16/Cyclin Y; read-out: Inhibition at 10µM (%) Replicate 1, CDK16/Y) of 64.2%. The inhibition at 10 µM (CDK16/Cyclin Y; read-out: Inhibition at 10µM (%) Replicate 2, CDK16/Y) was 56.2%, the inhibition at 10 µM (CDK17/Cyclin Y; read-out: Inhibition at 10µM (%) Average, CDK17/Y, average of replicates) was 43.6% and the inhibition at 10 µM (CDK17/Cyclin Y; read-out: Inhibition at 10µM (%) Replicate 1, CDK17/Y) was 42.5%. It also gave an inhibition at 10 µM (CDK17/Cyclin Y; read-out: Inhibition at 10µM (%) Replicate 2, CDK17/Y) of 44.7%, an inhibition at 10 µM (CDK20/Cyclin H; read-out: Inhibition at 10µM (%) Replicate 1, CDK20/H) of 24.8% and an inhibition at 10 µM (CDK20/Cyclin H; read-out: Inhibition at 10µM (%) Replicate 2, CDK20/H) of 6.8%. For the same compound, the inhibition at 10 µM (CDK19/Cyclin C; read-out: Inhibition at 10µM (%) Average, CDK19/C, average of replicates) was 16.1%, the inhibition at 10 µM (CDK19/Cyclin C; read-out: Inhibition at 10µM (%) Replicate 1, CDK19/C) was 17.8% and the inhibition at 10 µM (CDK19/Cyclin C; read-out: Inhibition at 10µM (%) Replicate 2, CDK19/C) was 14.4%. The inhibition at 10 µM (CDK10/Cyclin L2; read-out: Inhibition at 10µM (%) Average, CDK10/L2, average of replicates) was 2.1%, the inhibition at 10 µM (CDK10/Cyclin L2; read-out: Inhibition at 10µM (%) Replicate 1, CDK10/L2) was 1.6% and the inhibition at 10 µM (CDK10/Cyclin L2; read-out: Inhibition at 10µM (%) Replicate 2, CDK10/L2) was 2.6%.
